Assay results from patent publication EP0991637B1, “BENZO(5,6)CYCLOHEPTA(1,2-B)PYRIDINE DERIVATIVES AS FARNESYL PROTEIN TRANSFERASE INHIBITORS” (SCHERING CORPORATION, priority 1997, dated 1998).
pIC50: −log10 of the molar value.

Assays:
COS Cell = COS Cell IC50 (Cell-Based Assay), procedure of WO 95/10516; conditions: range stated for the whole group of compounds
Method: FPT IC50 (inhibition of farnesyl protein transferase, in vitro enzyme assay) and COS Cell IC50 (Cell-Based Assay) were determined following the assay procedures described in WO 95/10516, published April 20, 1995. GGPT IC50 (inhibition of geranylgeranyl protein transferase, in vitro enzyme assay), Cell Mat Assay, and anti-tumor activity (in vivo anti-tumor studies) could be determined by the assay procedures described in WO 95/10516. The disclosure of WO 95/10516 is incorporated herein by reference thereto.

Human tumor cells = assay: Soft Agar Assay (anchorage-independent growth, colony outgrowth, MTT staining); format: cell-based; conditions: 0.3% agarose over 0.6% agarose, 10-16 days at 37°C under 5% CO2
Method: Anchorage-independent growth is a characteristic of tumorigenic cell lines. Human tumor cells are suspended in growth medium containing 0.3% agarose and an indicated concentration of a farnesyl transferase inhibitor. The solution is overlayed onto growth medium solidified with 0.6% agarose containing the same concentration of farnesyl transferase inhibitor as the top layer. After the top layer is solidified, plates are incubated for 10-16 days at 37°C under 5% CO2 to allow colony outgrowth. After incubation, the colonies are stained by overlaying the agar with a solution of MTT (3-[4,5-dimethyl-thiazol-2-yl]-2,5-diphenyltetrazolium bromide, Thiazolyl blue) (1 mg/mL in PBS). Colonies can be counted and the IC50's can be determined.

Row | pIC50 (Human tumor cells) | Structure (SMILES) | pIC50 (COS Cell)
1 |  | NC(=O)[C@H]1C[C@@H]1C(=O)N1CCC([C@H]2c3ncc(Br)cc3CCc3cc(Cl)cc(Br)c32)CC1 [Compound 55.0, Trans-2(S)-[[4-(3,10-dibromo-8-chloro-6,11-dihydro-5H-benzo[5,6]cyclohepta[1,2-b]pyridin-11(R)-yl)-1-piperidinyl]carbonyl]-(S)-cyclopropanecarboxamide] | 6.30 to 8.00
2 |  | O=C(O)Cc1ccc(CC(=O)N2CCC([C@H]3c4ncc(Br)cc4CCc4cc(Cl)cc(Br)c43)CC2)cc1 [Example 3] | 6.30 to 8.00
3 |  | O=C(O)Cc1cccc(CC(=O)N2CCC([C@H]3c4ncc(Br)cc4CCc4cc(Cl)cc(Br)c43)CC2)c1 [Example 4] | 6.30 to 8.00
4 | < 6.30 | CCOC(=O)C1CCC(CC(=O)N2CCC([C@H]3c4ncc(Br)cc4CCc4cc(Cl)cc(Br)c43)CC2)CC1 (stereo partly shown) [Example 8] | 6.30 to 8.00
5 |  | O=C(O)C1CCC(CC(=O)N2CCC([C@H]3c4ncc(Br)cc4CCc4cc(Cl)cc(Br)c43)CC2)CC1 (stereo partly shown) [Example 12] | 6.30 to 8.00
6 |  | O=C(O)CC1CCC(CC(=O)N2CCC([C@H]3c4ncc(Br)cc4CCc4cc(Cl)cc(Br)c43)CC2)CC1 (stereo partly shown) [Example 13] | 6.30 to 8.00
7 | < 6.30 | O=C(O)C=C1CCC(=CC(=O)N2CCC([C@H]3c4ncc(Br)cc4CCc4cc(Cl)cc(Br)c43)CC2)CC1 [Example 14] | 6.30 to 8.00
8 |  | NC(=O)Cc1ccc(CC(=O)N2CCC([C@H]3c4ncc(Br)cc4CCc4cc(Cl)cc(Br)c43)CC2)cc1 [Example 15] | 6.30 to 8.00
9 |  | NC(=O)Cc1cccc(CC(=O)N2CCC([C@H]3c4ncc(Br)cc4CCc4cc(Cl)cc(Br)c43)CC2)c1 [Example 16] | 6.30 to 8.00
10 |  | COC(=O)CNC(=O)Cc1cccc(CC(=O)N2CCC([C@H]3c4ncc(Br)cc4CCc4cc(Cl)cc(Br)c43)CC2)c1 [Example 17] | 6.30 to 8.00
11 |  | COC(=O)CNC(=O)Cc1ccc(CC(=O)N2CCC([C@H]3c4ncc(Br)cc4CCc4cc(Cl)cc(Br)c43)CC2)cc1 [Example 18] | 6.30 to 8.00
12 |  | CONC(=O)Cc1ccc(CC(=O)N2CCC([C@H]3c4ncc(Br)cc4CCc4cc(Cl)cc(Br)c43)CC2)cc1 [Example 19] | 6.30 to 8.00
13 |  | NC(=O)CC1CCC(CC(=O)N2CCC([C@H]3c4ncc(Br)cc4CCc4cc(Cl)cc(Br)c43)CC2)CC1 (stereo partly shown) [Example 22] | 6.30 to 8.00
14 |  | NC(=O)C1CCC(CC(=O)N2CCC([C@H]3c4ncc(Br)cc4CCc4cc(Cl)cc(Br)c43)CC2)CC1 (stereo partly shown) [Example 23] | 6.30 to 8.00
15 |  | COC(=O)Cc1ccc(CC(=O)N2CCC([C@H]3c4ncc(Br)cc4CCc4cc(Cl)cc(Br)c43)CC2)cc1 [Example 34] | 6.30 to 8.00
16 |  | O=C(O)C[C@H]1CC[C@@H](C(=O)N2CCC([C@H]3c4ncc(Br)cc4CCc4cc(Cl)cc(Br)c43)CC2)CC1 [Example 35] | 6.30 to 8.00
17 |  | O=C(O)C[C@H]1CC[C@H](C(=O)N2CCC([C@H]3c4ncc(Br)cc4CCc4cc(Cl)cc(Br)c43)CC2)CC1 [Example 36] | 6.30 to 8.00
